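Exposure lasted 48 hours, with cells grown in 96-well plates and compounds tested at five concentrations. GI50 = concentration required for 50% inhibition of growth. Definition used: TGI = concentration required for complete inhibition of growth.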
How the values were obtained:
Assay in all cases: inhibition of tumour cell growth, NCI panel, 48 h
786-0 renal = tested on: 786-0 renal
A498 renal = tested on: A498 renal
A549 NSCLC = tested on: A549 NSCLC
ACHN renal = tested on: ACHN renal
BT-549 breast = tested on: BT-549 breast
CAKI-1 renal = tested on: CAKI-1 renal
CCRF-CEM leukemia = tested on: CCRF-CEM leukemia
COLO 205 colon = tested on: COLO 205 colon
DU-145 prostate = tested on: DU-145 prostate
EKVX NSCLC = tested on: EKVX NSCLC
HCC-2998 colon = tested on: HCC-2998 colon
HCT-116 colon = tested on: HCT-116 colon
HCT-15 colon = tested on: HCT-15 colon
HL-60(TB) leukemia = tested on: HL-60(TB) leukemia
HOP-62 NSCLC = tested on: HOP-62 NSCLC
HOP-92 NSCLC = tested on: HOP-92 NSCLC
HS 578T breast = tested on: HS 578T breast
HT29 colon = tested on: HT29 colon
IGROV1 ovarian = tested on: IGROV1 ovarian
K-562 leukemia = tested on: K-562 leukemia
KM12 colon = tested on: KM12 colon
LOX IMVI melanoma = tested on: LOX IMVI melanoma
M14 melanoma = tested on: M14 melanoma
MALME-3M melanoma = tested on: MALME-3M melanoma
MCF7 breast = tested on: MCF7 breast
MDA-MB-231 breast = tested on: MDA-MB-231 breast
MDA-MB-435 = tested on: MDA-MB-435
MOLT-4 leukemia = tested on: MOLT-4 leukemia
NCI-H226 lung = tested on: NCI-H226 lung
NCI-H23 lung = tested on: NCI-H23 lung
NCI-H460 lung = tested on: NCI-H460 lung
NCI-H522 lung = tested on: NCI-H522 lung
NCI/ADR-RES ovarian = tested on: NCI/ADR-RES ovarian
OVCAR-3 ovarian = tested on: OVCAR-3 ovarian
OVCAR-4 ovarian = tested on: OVCAR-4 ovarian
OVCAR-5 ovarian = tested on: OVCAR-5 ovarian
OVCAR-8 ovarian = tested on: OVCAR-8 ovarian
PC-3 prostate = tested on: PC-3 prostate
RPMI-8226 leukemia = tested on: RPMI-8226 leukemia
RXF 393 renal = tested on: RXF 393 renal
SF-268 CNS = tested on: SF-268 CNS
SF-295 CNS = tested on: SF-295 CNS
SF-539 CNS = tested on: SF-539 CNS
SK-MEL-2 melanoma = tested on: SK-MEL-2 melanoma
SK-MEL-28 melanoma = tested on: SK-MEL-28 melanoma
SK-MEL-5 melanoma = tested on: SK-MEL-5 melanoma
SK-OV-3 ovarian = tested on: SK-OV-3 ovarian
SN12C renal = tested on: SN12C renal
SNB-19 CNS = tested on: SNB-19 CNS
SNB-75 CNS = tested on: SNB-75 CNS
SR leukemia = tested on: SR leukemia
SW-620 colon = tested on: SW-620 colon
T-47D breast = tested on: T-47D breast
TK-10 renal = tested on: TK-10 renal
U251 CNS = tested on: U251 CNS
UACC-257 melanoma = tested on: UACC-257 melanoma
UACC-62 melanoma = tested on: UACC-62 melanoma
UO-31 renal = tested on: UO-31 renal

## CCNc1cc(-c2cccc(OC(F)(F)F)c2)nc2ccc(N3CCCC3)cc12
786-0 renal
  GI50: 1560 nM
  TGI: 3480 nM
A498 renal
  GI50: 1070 nM
  TGI: 2760 nM
A549 NSCLC
  GI50: 2680 nM
  TGI: 10500 nM
ACHN renal
  GI50: 2280 nM
  TGI: 7610 nM
BT-549 breast
  GI50: 2030 nM
  TGI: 4070 nM
CAKI-1 renal
  GI50: 1810 nM
  TGI: 4900 nM
CCRF-CEM leukemia
  GI50: 2040 nM
  TGI: 8690 nM
COLO 205 colon
  GI50: 1800 nM
  TGI: 4210 nM
DU-145 prostate
  GI50: 2200 nM
  TGI: 5880 nM
EKVX NSCLC
  GI50: 2490 nM
  TGI: 11100 nM
HCC-2998 colon
  GI50: 2270 nM
  TGI: 6060 nM
HCT-116 colon
  GI50: 1520 nM
  TGI: 3430 nM
HCT-15 colon
  GI50: 1710 nM
  TGI: 5960 nM
HL-60(TB) leukemia
  GI50: 1970 nM
  TGI: 4270 nM
HOP-62 NSCLC
  GI50: 1620 nM
  TGI: 3160 nM
HOP-92 NSCLC
  GI50: 1210 nM
  TGI: 3240 nM
HS 578T breast
  GI50: 1720 nM
  TGI: 3960 nM
HT29 colon
  GI50: 2180 nM
  TGI: 10300 nM
IGROV1 ovarian
  GI50: 1780 nM
  TGI: 4790 nM
K-562 leukemia
  GI50: 1430 nM
  TGI: 4300 nM
KM12 colon
  GI50: 1970 nM
  TGI: 4770 nM
LOX IMVI melanoma
  GI50: 1690 nM
  TGI: 3260 nM
M14 melanoma
  GI50: 1640 nM
  TGI: 3280 nM
MALME-3M melanoma
  GI50: 1740 nM
  TGI: 3360 nM
MCF7 breast
  GI50: 1840 nM
  TGI: 6540 nM
MDA-MB-231 breast
  GI50: 1580 nM
  TGI: 3160 nM
MDA-MB-435
  GI50: 1560 nM
  TGI: 3050 nM
MOLT-4 leukemia
  GI50: 2080 nM
  TGI: 7080 nM
NCI-H226 lung
  GI50: 1670 nM
  TGI: 4530 nM
NCI-H23 lung
  GI50: 1840 nM
  TGI: 4470 nM
NCI-H460 lung
  GI50: 1750 nM
  TGI: 4100 nM
NCI-H522 lung
  GI50: 1450 nM
  TGI: 3650 nM
NCI/ADR-RES ovarian
  GI50: 1830 nM
  TGI: 6250 nM
OVCAR-3 ovarian
  GI50: 1560 nM
  TGI: 3140 nM
OVCAR-4 ovarian
  GI50: 2350 nM
  TGI: 10700 nM
OVCAR-5 ovarian
  GI50: 2360 nM
  TGI: 7630 nM
OVCAR-8 ovarian
  GI50: 2510 nM
  TGI: 8240 nM
PC-3 prostate
  GI50: 1480 nM
  TGI: 4310 nM
RPMI-8226 leukemia
  GI50: 1340 nM
  TGI: 3920 nM
RXF 393 renal
  GI50: 1180 nM
  TGI: 3170 nM
SF-268 CNS
  GI50: 1790 nM
  TGI: 3790 nM
SF-295 CNS
  GI50: 1820 nM
  TGI: 3600 nM
SF-539 CNS
  GI50: 1730 nM
  TGI: 3360 nM
SK-MEL-2 melanoma
  GI50: 1810 nM
  TGI: 3540 nM
SK-MEL-28 melanoma
  GI50: 1710 nM
  TGI: 3740 nM
SK-MEL-5 melanoma
  GI50: 1510 nM
  TGI: 2840 nM
SK-OV-3 ovarian
  GI50: 1800 nM
  TGI: 3860 nM
SN12C renal
  GI50: 1700 nM
  TGI: 3970 nM
SNB-19 CNS
  GI50: 3120 nM
  TGI: 10900 nM
SNB-75 CNS
  GI50: 1530 nM
  TGI: 4500 nM
SR leukemia
  GI50: 1570 nM
  TGI: 5000 nM
SW-620 colon
  GI50: 1600 nM
  TGI: 3470 nM
T-47D breast
  GI50: 2110 nM
  TGI: 7060 nM
TK-10 renal
  GI50: 2580 nM
  TGI: 8090 nM
U251 CNS
  GI50: 1680 nM
  TGI: 3620 nM
UACC-257 melanoma
  GI50: 1660 nM
  TGI: 3460 nM
UACC-62 melanoma
  GI50: 1570 nM
  TGI: 3070 nM
UO-31 renal
  GI50: 1360 nM
  TGI: 2710 nM

From PubChem BioAssay (NCI)
